Measured values reported in ChEMBL document CHEMBL3120154, “2-[N-Alkyl(R-phenyl)-aminomethyl]-3-phenyl-7-trifluoromethylquinoxalines as anticancer agents inhibitors of folate enzymes” (Eur J Med Chem, 2014).

Key:
Format in all cases: functional
Malme-3M = experiment: Cytotoxicity against human MALME-3M cells at 10^-5 M after 48 hrs by SRB assay; conditions: read-out: GI
RXF 393 [1] = experiment: Cytotoxicity against human RXF393 cells after 48 hrs by SRB assay; conditions: RXF 393, 48 h
A549 [2] = experiment: Cytotoxicity against human A549 cells after 48 hrs by SRB assay; conditions: A549, 48 h
T47D = experiment: Cytotoxicity against human T47D cells at 10^-8 M after 48 hrs by SRB assay; conditions: read-out: GI
[3] = Cytotoxicity against human Hs578T cells at 10^-8 M after 48 hrs by SRB assay; conditions: Hs-578T, read-out: GI
MDA-MB-231 = experiment: Cytotoxicity against human MDA-MB-231 cells at 10^-8 M after 48 hrs by SRB assay; conditions: MDA-MB-231, 48 h, read-out: GI
NCI/ADR-RES [4] = experiment: Cytotoxicity against human NCI/ADR-RES cells at 10^-8 M after 48 hrs by SRB assay; conditions: read-out: GI
CAKI-1 = experiment: Cytotoxicity against human Caki1 cells at 10^-8 M after 48 hrs by SRB assay; conditions: CAKI-1, 48 h, read-out: GI
SK-OV-3 = experiment: Cytotoxicity against human SKOV3 cells at 10^-8 M after 48 hrs by SRB assay; conditions: SK-OV-3, 48 h, read-out: GI
OVCAR-3 [5] = experiment: Cytotoxicity against human OVCAR3 cells at 10^-8 M after 48 hrs by SRB assay; conditions: OVCAR-3, 48 h, read-out: GI
[6] = Cytotoxicity against human UACC257 cells at 10^-8 M after 48 hrs by SRB assay; conditions: UACC-257, 48 h, read-out: GI
M14 = experiment: Cytotoxicity against human M14 cells at 10^-8 M after 48 hrs by SRB assay; conditions: M14, 48 h, read-out: GI
LOX IMVI = experiment: Cytotoxicity against human LOXIMVI cells at 10^-8 M after 48 hrs by SRB assay; conditions: read-out: GI
SF-268 = experiment: Cytotoxicity against human SF268 cells at 10^-8 M after 48 hrs by SRB assay; conditions: SF-268, 48 h, read-out: GI
HT-29 [7] = experiment: Cytotoxicity against human HT-29 cells at 10^-8 M after 48 hrs by SRB assay; conditions: HT-29, 48 h, read-out: GI
HCT-15 = experiment: Cytotoxicity against human HCT15 cells at 10^-8 M after 48 hrs by SRB assay; conditions: HCT-15, 48 h, read-out: GI
HCT-116 = experiment: Cytotoxicity against human HCT116 cells at 10^-8 M after 48 hrs by SRB assay; conditions: HCT-116, 48 h, read-out: GI
NCI-H322M = experiment: Cytotoxicity against human NCI-H322M cells at 10^-8 M after 48 hrs by SRB assay; conditions: read-out: GI
[8] = Cytotoxicity against human EKVX cells at 10^-8 M after 48 hrs by SRB assay; conditions: read-out: GI
MDA-MB-435 = experiment: Cytotoxicity against human MDA-MB-435 cells at 10^-7 M after 48 hrs by SRB assay; conditions: MDA-MB-435, 48 h, read-out: GI
NCI/ADR-RES [9] = experiment: Cytotoxicity against human NCI/ADR-RES cells at 10^-7 M after 48 hrs by SRB assay; conditions: read-out: GI
MCF7 = experiment: Cytotoxicity against human MCF7 cells at 10^-7 M after 48 hrs by SRB assay; conditions: MCF7, 48 h, read-out: GI
RXF 393 [10] = experiment: Cytotoxicity against human RXF393 cells at 10^-7 M after 48 hrs by SRB assay; conditions: RXF 393, 48 h, read-out: GI
A498 = experiment: Cytotoxicity against human A498 cells at 10^-7 M after 48 hrs by SRB assay; conditions: A498, 48 h, read-out: GI
786-0 = experiment: Cytotoxicity against human 786-0 cells at 10^-7 M after 48 hrs by SRB assay; conditions: 786-0, 48 h, read-out: GI
[11] = Cytotoxicity against human OVCAR5 cells at 10^-7 M after 48 hrs by SRB assay; conditions: OVCAR-5, 48 h, read-out: GI
OVCAR-3 [12] = experiment: Cytotoxicity against human OVCAR3 cells at 10^-7 M after 48 hrs by SRB assay; conditions: OVCAR-3, 48 h, read-out: GI
[13] = Cytotoxicity against human UACC257 cells at 10^-7 M after 48 hrs by SRB assay; conditions: UACC-257, 48 h, read-out: GI
SK-MEL-5 = experiment: Cytotoxicity against human SK-MEL-5 cells at 10^-7 M after 48 hrs by SRB assay; conditions: SK-MEL-5, 48 h, read-out: GI
SF-539 = experiment: Cytotoxicity against human SF539 cells at 10^-7 M after 48 hrs by SRB assay; conditions: SF-539, 48 h, read-out: GI
KM12 = experiment: Cytotoxicity against human KM12 cells at 10^-7 M after 48 hrs by SRB assay; conditions: KM12, 48 h, read-out: GI
HT-29 [14] = experiment: Cytotoxicity against human HT-29 cells at 10^-7 M after 48 hrs by SRB assay; conditions: HT-29, 48 h, read-out: GI
NCI-H522 = experiment: Cytotoxicity against human NCI-H522 cells at 10^-7 M after 48 hrs by SRB assay; conditions: NCI-H522, 48 h, read-out: GI
NCI-H460 = experiment: Cytotoxicity against human NCI-H460 cells at 10^-7 M after 48 hrs by SRB assay; conditions: NCI-H460, 48 h, read-out: GI
NCI-H23 = experiment: Cytotoxicity against human NCI-H23 cells at 10^-7 M after 48 hrs by SRB assay; conditions: NCI-H23, 48 h, read-out: GI
NCI-H226 = experiment: Cytotoxicity against human NCI-H226 cells at 10^-7 M after 48 hrs by SRB assay; conditions: NCI-H226, 48 h, read-out: GI
HOP-92 = experiment: Cytotoxicity against human HOP92 cells at 10^-7 M after 48 hrs by SRB assay; conditions: HOP-92, 48 h, read-out: GI
HOP-62 = experiment: Cytotoxicity against human HOP62 cells at 10^-7 M after 48 hrs by SRB assay; conditions: HOP-62, 48 h, read-out: GI
A549 [15] = experiment: Cytotoxicity against human A549 cells at 10^-7 M after 48 hrs by SRB assay; conditions: A549, 48 h, read-out: GI
RPMI-8226 = experiment: Cytotoxicity against human RPMI8226 cells at 10^-7 M after 48 hrs by SRB assay; conditions: RPMI-8226, 48 h, read-out: GI
[16] = Cytotoxicity against human UO31 cells at 10^-6 M after 48 hrs by SRB assay; conditions: UO-31, 48 h, read-out: GI
SF-295 = experiment: Cytotoxicity against human SF295 cells at 10^-5 M after 48 hrs by SRB assay; conditions: SF-295, 48 h, read-out: GI
HCC 2998 = experiment: Cytotoxicity against human HCC2998 cells at 10^-5 M after 48 hrs by SRB assay; conditions: HCC 2998, 48 h, read-out: GI

C#CCN(Cc1nc2cc(C(F)(F)F)ccc2nc1-c1ccccc1)c1ccc(C)cc1
inhibition of growth at 10 µM (Malme-3M): 41%

CCN(Cc1nc2cc(C(F)(F)F)ccc2nc1-c1ccccc1)c1ccc(OC)c(OC)c1
GI50 (RXF 393 [1]): 309 nM | GI50 (A549 [2]): 372 nM | inhibition of growth at 0.01 µM (T47D): < 40% | inhibition of growth at 0.01 µM [3]: < 40% | inhibition of growth at 0.01 µM (MDA-MB-231): < 40% | inhibition of growth at 0.01 µM (NCI/ADR-RES [4]): < 40% | inhibition of growth at 0.01 µM (CAKI-1): < 40% | inhibition of growth at 0.01 µM (SK-OV-3): < 40% | inhibition of growth at 0.01 µM (OVCAR-3 [5]): < 40% | inhibition of growth at 0.01 µM [6]: 39% | inhibition of growth at 0.01 µM (M14): < 40% | inhibition of growth at 0.01 µM (LOX IMVI): < 40% | inhibition of growth at 0.01 µM (SF-268): < 40% | inhibition of growth at 0.01 µM (HT-29 [7]): < 40% | inhibition of growth at 0.01 µM (HCT-15): < 40% | inhibition of growth at 0.01 µM (HCT-116): < 40% | inhibition of growth at 0.01 µM (NCI-H322M): < 40% | inhibition of growth at 0.01 µM [8]: < 40% | inhibition of growth at 0.1 µM (MDA-MB-435): < 40% | inhibition of growth at 0.1 µM (NCI/ADR-RES [9]): < 40% | inhibition of growth at 0.1 µM (MCF7): < 40% | inhibition of growth at 0.1 µM (RXF 393 [10]): 43% | inhibition of growth at 0.1 µM (A498): < 40% | inhibition of growth at 0.1 µM (786-0): < 40% | inhibition of growth at 0.1 µM [11]: < 40% | inhibition of growth at 0.1 µM (OVCAR-3 [12]): < 40% | inhibition of growth at 0.1 µM [13]: 67% | inhibition of growth at 0.1 µM (SK-MEL-5): < 40% | inhibition of growth at 0.1 µM (SF-539): < 40% | inhibition of growth at 0.1 µM (KM12): < 40% | inhibition of growth at 0.1 µM (HT-29 [14]): < 40% | inhibition of growth at 0.1 µM (NCI-H522): < 40% | inhibition of growth at 0.1 µM (NCI-H460): < 40% | inhibition of growth at 0.1 µM (NCI-H23): < 40% | inhibition of growth at 0.1 µM (NCI-H226): < 40% | inhibition of growth at 0.1 µM (HOP-92): < 40% | inhibition of growth at 0.1 µM (HOP-62): < 40% | inhibition of growth at 0.1 µM (A549 [15]): 42% | inhibition of growth at 0.1 µM (RPMI-8226): < 40% | inhibition of growth at 1 µM [16]: < 40% | inhibition of growth at 10 µM (SF-295): 18% | inhibition of growth at 10 µM (HCC 2998): 15%
